This is an account of results in ChEMBL document CHEMBL1201862, “PubChem BioAssay data set” (2004).

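1) Cells in 96-well plates. 2) Compound, 48 h, 5 concentrations. 3) Linear interpolation between surrounding doses. 4) Unreached endpoint = highest concentration. Here, GI50 denotes the concentration required for 50% inhibition of growth.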 Activity calls are given as the source filed them. Cut-off read from the data, not from the text of the source: active = GI50 up to about 1.1 µM and inactive = higher.

Some test systems named below: SK-MEL-5; LXFL 529; CAKI-1; KM12; SF-268; RPMI-8226; 786-0; UO-31; SNB-19; M14; EKVX; HCC 2998; IGROV-1; OVCAR-8; UACC-257; LOX IMVI; SF-539; U-251; DU-145; MDA-MB-435.
Holding throughout (experiment): inhibition of tumour cell growth, NCI panel, 48 h

On to `Cn1cc(C(=O)NCCC(=N)N)cc1NC(=O)C1=[N+](C)C=C(NC(=O)c2cccc(C(=O)NC3=CC(C(=O)Nc4cc(C(=O)NCCC(=N)N)cn4C)=[N+](C)C3)c2)C1`, for which the GI50 in the assay with SK-MEL-5 was 42.3 µM (inactive); with LXFL 529 it was > 100 µM (inactive); with CAKI-1, > 100 µM (inactive); in the assay with KM12 it was 36.3 µM (inactive); in the assay on SF-268, > 100 µM (inactive); in the assay with RPMI-8226 it was > 100 µM (inactive). Further, the GI50 in the assay on 786-0 was 37.8 µM (inactive); in the assay with UO-31, > 100 µM (inactive); in the assay with SNB-19, > 100 µM (inactive); in the assay on M14 it was > 100 µM (inactive); in the assay with EKVX, > 100 µM (inactive); with HCC 2998 it was 99.8 µM (inactive). The GI50 was > 100 µM (inactive) with IGROV-1; > 100 µM (inactive) with OVCAR-8; 93.1 µM (inactive) with UACC-257; > 100 µM (inactive) in the assay on LOX IMVI; 41.2 µM (inactive) with SF-539; > 100 µM (inactive) in the assay on U-251.
For the compound `O=CN/C=C/c1cccc(O)c1`, the GI50 is > 63.1 µM (inactive) in the assay with SK-MEL-5; > 100 µM (inactive) with LXFL 529; > 61.5 µM (inactive) in the assay with CAKI-1; 62.4 µM (inactive) in the assay on KM12; > 57.5 µM (inactive) in the assay with SF-268; 57.5 µM (inactive) in the assay with DU-145. The GI50 in the assay on RPMI-8226 was > 71.9 µM (inactive); in the assay on MDA-MB-435, 38.2 µM (inactive); in the assay with 786-0, 54 µM (inactive); in the assay with UO-31, 54.2 µM (inactive); with SNB-19 it was 70.1 µM (inactive); in the assay with M14, 61.9 µM (inactive). The GI50 in the assay with EKVX was 69.2 µM (inactive); with HCC 2998, > 74.6 µM (inactive); in the assay on IGROV-1, 55 µM (inactive); in the assay on OVCAR-8 it was 54.1 µM (inactive); with UACC-257 it was 63.7 µM (inactive); in the assay with LOX IMVI, 48.4 µM (inactive). In addition, the GI50 was 57.3 µM (inactive) in the assay with SF-539 and 56.9 µM (inactive) with U-251.
For `O=C(/C(=C\c1ccccc1)CN1CCOCC1)c1ccc(Br)cc1`, the GI50 is 1.91 µM (inactive) with SK-MEL-5; 1.28 µM (inactive) in the assay on LXFL 529; 1.88 µM (inactive) with CAKI-1; 1.87 µM (inactive) in the assay with KM12; 3.63 µM (inactive) with SF-268; 2.43 µM (inactive) in the assay on RPMI-8226. The GI50 is 1.57 µM (inactive) with 786-0; 1.8 µM (inactive) with UO-31; 5.79 µM (inactive) in the assay on SNB-19; 1.78 µM (inactive) with M14; 3.06 µM (inactive) in the assay with EKVX; 16 µM (inactive) with HCC 2998. Besides, the GI50 in the assay on IGROV-1 is 4.97 µM (inactive); in the assay on OVCAR-8 it was 1.61 µM (inactive); with UACC-257 it was 2.59 µM (inactive); with LOX IMVI, 1.65 µM (inactive); in the assay on SF-539, 2.12 µM (inactive); in the assay with U-251, 2.51 µM (inactive).
`COc1cc2c(OC)cc1CSCc1sc(C)c(c1Br)CSC2`: the GI50 in the assay with SK-MEL-5, in the assay with LXFL 529, in the assay with CAKI-1, with KM12, in the assay on SF-268 and with RPMI-8226 was > 100 µM (inactive) throughout. Moreover, the GI50 in the assay on 786-0, with UO-31, with SNB-19, in the assay with M14, in the assay with EKVX and in the assay on HCC 2998 was > 100 µM (inactive) in each case. Also, the GI50 in the assay on IGROV-1, in the assay with OVCAR-8, in the assay on UACC-257, in the assay with LOX IMVI, in the assay on SF-539 and with U-251 was > 100 µM (inactive) throughout.
Turning to `Cc1ccc(C)c(NC(=O)C(=O)C2C(=O)N(c3ccccc3)N=C2N)c1` (stereo unspecified), the GI50 in the assay with SK-MEL-5, with LXFL 529, with CAKI-1, with KM12, in the assay with SF-268 and in the assay with RPMI-8226 was > 100 µM (inactive) throughout. For the same compound, the GI50 with 786-0, with UO-31, in the assay on SNB-19, in the assay on M14, in the assay on EKVX and in the assay on HCC 2998 was > 100 µM (inactive) each time. Further, the GI50 with IGROV-1, with OVCAR-8, with UACC-257, with LOX IMVI, with SF-539 and with U-251 was > 100 µM (inactive) throughout.
Turning to `NCCCNCCSSCCCCS(=O)O`, the GI50 in the assay with SK-MEL-5 is 17.2 µM (inactive); in the assay with LXFL 529 it was 23 µM (inactive); with CAKI-1, 75.5 µM (inactive); in the assay with KM12 it was > 10 µM (inactive); in the assay on SF-268, 18.1 µM (inactive); in the assay with RPMI-8226, 26.1 µM (inactive). For the same compound, the GI50 was > 100 µM (inactive) in the assay on 786-0; 30.6 µM (inactive) in the assay with UO-31; > 100 µM (inactive) in the assay with SNB-19; 18.5 µM (inactive) in the assay with M14; 85.7 µM (inactive) in the assay with EKVX; > 100 µM (inactive) in the assay with HCC 2998. Further, the GI50 was > 100 µM (inactive) in the assay on IGROV-1; 38.6 µM (inactive) in the assay with OVCAR-8; 17.2 µM (inactive) with UACC-257; 8.32 µM (inactive) in the assay on LOX IMVI; 80 µM (inactive) in the assay with SF-539; > 100 µM (inactive) with U-251.
Turning to `CNC(=S)OCCC(C)CCCC(C)C` (stereo unspecified), the GI50 in the assay with SK-MEL-5 was 17.5 µM (inactive); in the assay with LXFL 529, 15.8 µM (inactive); in the assay on CAKI-1, 17.1 µM (inactive); in the assay on KM12, 14.4 µM (inactive); in the assay with SF-268, 17 µM (inactive); in the assay on RPMI-8226, 10.8 µM (inactive). Moreover, the GI50 with 786-0 was 17.2 µM (inactive); with UO-31 it was 7.16 µM (inactive); in the assay with SNB-19, 16.9 µM (inactive); in the assay with M14, 18.6 µM (inactive); in the assay on EKVX, 17.1 µM (inactive); with HCC 2998 it was 18 µM (inactive). For the same compound, the GI50 with IGROV-1 was 17.3 µM (inactive); in the assay with OVCAR-8, 17.3 µM (inactive); in the assay with UACC-257, 16.4 µM (inactive); with LOX IMVI it was 13.2 µM (inactive); in the assay on SF-539, 16.8 µM (inactive); with U-251 it was 15.5 µM (inactive).
For the compound `COc1ccc(/C=C2/C(=O)N(C(=O)c3ccccc3O)N=C2C)cc1OC`, the GI50 with SK-MEL-5 is 0.982 µM (active); with LXFL 529, 0.303 µM (active); in the assay with CAKI-1, 2.46 µM (inactive); in the assay on KM12, 0.516 µM (active); with SF-268, 0.556 µM (active); in the assay on DU-145 it was 0.643 µM (active). Besides, the GI50 was 1.72 µM (inactive) with RPMI-8226; 0.355 µM (active) in the assay with MDA-MB-435; 1.26 µM (inactive) in the assay with 786-0; 0.202 µM (active) in the assay with UO-31; 0.927 µM (active) with M14; 1.38 µM (inactive) with EKVX. Moreover, the GI50 with HCC 2998 was > 24.3 µM (inactive); in the assay on IGROV-1 it was 0.133 µM (active); with OVCAR-8 it was 0.568 µM (active); in the assay with UACC-257, 1.42 µM (inactive); in the assay on LOX IMVI it was 0.603 µM (active); in the assay with SF-539, 0.241 µM (active). Also, the GI50 with U-251 was 0.202 µM (active).
On to `c1ccc2c(c1)n1nnnc1c1nnnn21`, for which the GI50 was > 100 µM (inactive) in the assay on SK-MEL-5; > 100 µM (inactive) in the assay with LXFL 529; > 100 µM (inactive) with CAKI-1; > 100 µM (inactive) in the assay with KM12; 85.1 µM (inactive) in the assay on SF-268; > 100 µM (inactive) in the assay with RPMI-8226. Moreover, the GI50 is 83.4 µM (inactive) in the assay on 786-0; > 100 µM (inactive) with UO-31; > 100 µM (inactive) in the assay with SNB-19; > 100 µM (inactive) in the assay on M14; > 100 µM (inactive) with EKVX; > 100 µM (inactive) in the assay with HCC 2998. For the same compound, the GI50 is > 100 µM (inactive) with IGROV-1; 92.7 µM (inactive) with OVCAR-8; > 100 µM (inactive) in the assay on UACC-257; 33.5 µM (inactive) with LOX IMVI; 78.9 µM (inactive) with SF-539; > 100 µM (inactive) in the assay with U-251.
For the compound `O=c1nc2occc2cn1C1CC(O)C(CO)O1` (stereo unspecified), the GI50 in the assay with SK-MEL-5, with LXFL 529, with CAKI-1, with KM12, with SF-268 and with RPMI-8226 was > 100 µM (inactive) each time. Besides, the GI50 with 786-0, in the assay on UO-31, with SNB-19, with M14, in the assay on EKVX and with HCC 2998 was > 100 µM (inactive) in each case. The GI50 in the assay on IGROV-1, with OVCAR-8, with UACC-257, with LOX IMVI, with SF-539 and in the assay with U-251 was > 100 µM (inactive) each time.
For `Cn1ncc2c(c1=O)Nc1ccccc1S2(=O)=O`, the GI50 was > 100 µM (inactive) in the assay with SK-MEL-5; 80.4 µM (inactive) in the assay on LXFL 529; > 100 µM (inactive) in the assay on CAKI-1; > 100 µM (inactive) in the assay on KM12; > 100 µM (inactive) with SF-268; 53.8 µM (inactive) in the assay on RPMI-8226. In addition, the GI50 with 786-0 is 28.4 µM (inactive); in the assay on UO-31 it was > 100 µM (inactive); in the assay with SNB-19, > 100 µM (inactive); with M14 it was > 100 µM (inactive); in the assay with EKVX, > 100 µM (inactive); in the assay on HCC 2998, > 100 µM (inactive). The GI50 was > 100 µM (inactive) in the assay on IGROV-1; > 100 µM (inactive) in the assay with OVCAR-8; > 100 µM (inactive) in the assay on UACC-257; > 100 µM (inactive) in the assay on LOX IMVI; 21.6 µM (inactive) with SF-539; 34.6 µM (inactive) in the assay on U-251.
